Experimental data: ChEMBL document CHEMBL4406816, “Role of sulphur-heterocycles in medicinal chemistry: An update” (Eur J Med Chem, 2019)
Values after ≈ are worked out from the molar mass of the structure shown.

System: Mycobacterium tuberculosis
Assay: Antitubercular activity against multidrug resistant Mycobacterium tuberculosis
Assay type: functional

O=C(N/N=C/c1ccc([N+](=O)[O-])cc1)[C@H]1CSC(c2ccc(F)cc2)N1 (stereo partly specified)
MIC: 1.33 µM (≈ 0.498 µg/mL)
